Laboratory results reported in ChEMBL document CHEMBL1147813, “Design, molecular modeling, synthesis, and anti-HIV-1 activity of new indolyl aryl sulfones. Novel derivatives of the indole-2-carboxamide” (J Med Chem, 2006).

Key:
Lymphocyte [1] = assay: Selectivity index, TC50 for human lymphocytes/EC50 for HIV-AB1; assay type: functional
[2] = test system: Human immunodeficiency virus 1; assay: Antiviral activity against HIV1 in C8166 cell line; assay type: functional, organism-based; settings: Human immunodeficiency virus 1, C8166
MT4 [3] = assay: Cytotoxicity against MT4 cell line by MTT assay; assay type: functional; settings: Homo sapiens, read-out: TC50 (the source's name)
Lymphocyte [4] = assay: Selectivity index, TC50 for human lymphocytes/EC50 for HIV1 3B; assay type: functional
[5] = test system: Human immunodeficiency virus 1; assay: Antiviral activity against HIV1 […] in human macrophages; assay type: functional, organism-based
[6] = test system: Human immunodeficiency virus 1; assay: Antiviral activity against HIV1 in MT4 cell line; assay type: functional, organism-based; settings: Human immunodeficiency virus 1, MT4
MT4 [7] = assay: Selectivity index, TC50 for MT4 cell line/EC50 for HIV1; assay type: functional
Lymphocyte [8] = assay: Cytotoxicity against human lymphocytes; assay type: functional; settings: read-out: TC50 (the source's name)
[9] = test system: Human immunodeficiency virus 1; assay: Antiviral activity against HIV1 K103N-Y181C mutant in MT4 cell line; assay type: functional, organism-based; settings: Human immunodeficiency virus 1, MT4
[10] = test system: Human immunodeficiency virus 1; assay: Antiviral activity against HIV1 3B in MT4 cell line; assay type: functional, organism-based; settings: Human immunodeficiency virus 1, 3B
Lymphocyte [11] = assay: Selectivity index, TC50 for human lymphocytes/EC50 for HIV-112; assay type: functional
C8166 [12] = assay: Antiproliferative activity against C8166 cell line by MTT assay; assay type: functional; settings: Homo sapiens, read-out: TC50 (the source's name)
[13] = test system: Human immunodeficiency virus 1; assay: Activity against HIV1 3B assessed by inhibition of p24 production in human lymphocytes; assay type: functional, organism-based; settings: Human immunodeficiency virus 1, 3B
[14] = test system: Human immunodeficiency virus; assay: Activity against HIV-112 assessed by inhibition of p24 production in human lymphocytes; assay type: functional, organism-based; settings: Human immunodeficiency virus 1
[15] = test system: Human immunodeficiency virus; assay: Activity against HIV-AB1 assessed by inhibition of p24 production in human lymphocytes; assay type: functional, organism-based; settings: Human immunodeficiency virus 1
Macrophage [16] = assay: Selectivity index, TC50 for human macrophages/EC50 for HIV1 […]; assay type: functional
Macrophage [17] = assay: Cytotoxicity against human macrophages; assay type: functional; settings: read-out: TC50 (the source's name)
C8166 [18] = assay: Selectivity index, TC50 for C8166 cell line/EC50 for HIV1; assay type: functional
[19] = test system: Human immunodeficiency virus 1; assay: Antiviral activity against HIV1 Y181C mutant in MT4 cell line; assay type: functional, organism-based; settings: Human immunodeficiency virus 1, MT4

SMILES: O=C(NN1CCOC1=O)c1[nH]c2ccc(Cl)cc2c1S(=O)(=O)c1ccccc1
- Selectivity index (Lymphocyte [1]): >200
- EC50 [2]: 20 nM
- CC50 (MT4 [3]): > 100000 nM
- Selectivity index (Lymphocyte [4]): >1000
- EC50 [5]: 60 nM
- EC50 ([6]; read-out: EC50): 15 nM
- EC50 ([6]; read-out: Log EC50 (converted)): 15 nM
- Selectivity index (MT4 [7]): >6666
- CC50 (Lymphocyte [8]): > 100000 nM
- EC50 [9]: > 20000 nM
- EC50 [10]: 15 nM
- Selectivity index (Lymphocyte [11]): >250
- CC50 (C8166 [12]): > 100000 nM
- EC50 [13]: 100 nM
- EC50 [14]: 400 nM
- EC50 [15]: 500 nM
- Selectivity index (Macrophage [16]): >1666
- CC50 (Macrophage [17]): > 100000 nM
- Selectivity index (C8166 [18]): >5000
- EC50 [19]: 300 nM

SMILES: Cc1cc(C)cc(S(=O)(=O)c2c(C(=O)NNC(=O)NN)[nH]c3ccc(Cl)cc23)c1
- Selectivity index (Lymphocyte [1]): >2500
- EC50 [2]: 8 nM
- CC50 (MT4 [3]): > 100000 nM
- Selectivity index (Lymphocyte [4]): >3333
- EC50 [5]: 9 nM
- EC50 ([6]; read-out: EC50): 10 nM
- EC50 ([6]; read-out: Log EC50 (converted)): 10 nM
- Selectivity index (MT4 [7]): >10000
- CC50 (Lymphocyte [8]): > 100000 nM
- EC50 [9]: 5700 nM
- EC50 [10]: 40 nM
- Selectivity index (Lymphocyte [11]): >2000
- CC50 (C8166 [12]): > 100000 nM
- EC50 [13]: 30 nM
- EC50 [14]: 50 nM
- EC50 [15]: 40 nM
- Selectivity index (Macrophage [16]): >11111
- CC50 (Macrophage [17]): > 100000 nM
- Selectivity index (C8166 [18]): >12500
- EC50 [19]: 20 nM

SMILES: CNNC(=O)c1[nH]c2ccc(Cl)cc2c1S(=O)(=O)c1cc(C)cc(C)c1
- Selectivity index (Lymphocyte [1]): >5000
- EC50 [2]: 30 nM
- CC50 (MT4 [3]): > 100000 nM
- Selectivity index (Lymphocyte [4]): >5000
- EC50 [5]: 30 nM
- EC50 ([6]; read-out: EC50): 20 nM
- EC50 ([6]; read-out: Log EC50 (converted)): 20 nM
- Selectivity index (MT4 [7]): >5000
- CC50 (Lymphocyte [8]): > 100000 nM
- EC50 [9]: > 20000 nM
- EC50 [10]: 50 nM
- Selectivity index (Lymphocyte [11]): >2500
- CC50 (C8166 [12]): > 100000 nM
- EC50 [13]: 20 nM
- EC50 [14]: 40 nM
- EC50 [15]: 20 nM
- Selectivity index (Macrophage [16]): >3333
- CC50 (Macrophage [17]): > 100000 nM
- Selectivity index (C8166 [18]): >3333
- EC50 [19]: 130 nM

SMILES: Cc1cc(C)cc(S(=O)(=O)c2c(C(=O)NNC(C)C)[nH]c3ccc(Cl)cc23)c1
- Selectivity index (Lymphocyte [1]): >12500
- EC50 [2]: 3 nM
- CC50 (MT4 [3]): > 100000 nM
- Selectivity index (Lymphocyte [4]): >12500
- EC50 [5]: 5 nM
- EC50 ([6]; read-out: EC50): 0.7 nM
- EC50 ([6]; read-out: Log EC50 (converted)): 0.7 nM
- Selectivity index (MT4 [7]): >142857
- CC50 (Lymphocyte [8]): > 100000 nM
- EC50 [9]: 8600 nM
- EC50 [10]: 0.7 nM
- Selectivity index (Lymphocyte [11]): >16666
- CC50 (C8166 [12]): > 100000 nM
- EC50 [13]: 8 nM
- EC50 [14]: 6 nM
- EC50 [15]: 8 nM
- Selectivity index (Macrophage [16]): >20000
- CC50 (Macrophage [17]): > 100000 nM
- Selectivity index (C8166 [18]): >33333
- EC50 [19]: 40 nM

SMILES: CCOC(=O)NNC(=O)c1[nH]c2ccc(Cl)cc2c1S(=O)(=O)c1cc(C)cc(C)c1
- Selectivity index (Lymphocyte [1]): >5000
- EC50 [2]: 50 nM
- CC50 (MT4 [3]): 100000 nM
- Selectivity index (Lymphocyte [4]): >5000
- EC50 [5]: 6 nM
- EC50 ([6]; read-out: EC50): 20 nM
- EC50 ([6]; read-out: Log EC50 (converted)): 20 nM
- Selectivity index (MT4 [7]): 5000
- CC50 (Lymphocyte [8]): > 100000 nM
- EC50 [9]: 9200 nM
- EC50 [10]: 20 nM
- Selectivity index (Lymphocyte [11]): >3333
- CC50 (C8166 [12]): > 100000 nM
- EC50 [13]: 20 nM
- EC50 [14]: 30 nM
- EC50 [15]: 20 nM
- Selectivity index (Macrophage [16]): >16666
- CC50 (Macrophage [17]): > 100000 nM
- Selectivity index (C8166 [18]): >2000
- EC50 [19]: 40 nM

SMILES: CC(=O)NNC(=O)c1[nH]c2ccc(Cl)cc2c1S(=O)(=O)c1cc(C)cc(C)c1
- Selectivity index (Lymphocyte [1]): >10000
- EC50 [2]: 7 nM
- CC50 (MT4 [3]): > 100000 nM
- Selectivity index (Lymphocyte [4]): >10000
- EC50 [5]: 8 nM
- EC50 ([6]; read-out: EC50): 5 nM
- EC50 ([6]; read-out: Log EC50 (converted)): 5 nM
- Selectivity index (MT4 [7]): >20000
- CC50 (Lymphocyte [8]): > 100000 nM
- EC50 [9]: > 20000 nM
- EC50 [10]: 5 nM
- Selectivity index (Lymphocyte [11]): >12500
- CC50 (C8166 [12]): > 100000 nM
- EC50 [13]: 10 nM
- EC50 [14]: 8 nM
- EC50 [15]: 10 nM
- Selectivity index (Macrophage [16]): >12500
- CC50 (Macrophage [17]): > 100000 nM
- Selectivity index (C8166 [18]): >14285
- EC50 [19]: 20 nM

SMILES: Cc1cc(C)cc(S(=O)(=O)c2c(C(=O)NNC3CCCCC3)[nH]c3ccc(Cl)cc23)c1
- Selectivity index (Lymphocyte [1]): >111
- EC50 [2]: 80 nM
- CC50 (MT4 [3]): > 100000 nM
- Selectivity index (Lymphocyte [4]): >125
- EC50 [5]: 200 nM
- EC50 ([6]; read-out: EC50): 50 nM
- EC50 ([6]; read-out: Log EC50 (converted)): 50 nM
- Selectivity index (MT4 [7]): >2000
- CC50 (Lymphocyte [8]): > 100000 nM
- EC50 [9]: > 20000 nM
- EC50 [10]: 100 nM
- Selectivity index (Lymphocyte [11]): >100
- CC50 (C8166 [12]): > 100000 nM
- EC50 [13]: 800 nM
- EC50 [14]: 1000 nM
- EC50 [15]: 900 nM
- Selectivity index (Macrophage [16]): >500
- CC50 (Macrophage [17]): > 100000 nM
- Selectivity index (C8166 [18]): >1250
- EC50 [19]: 1200 nM
